Measured values reported in patent US20140275509A1, “MULTIFUNCTIONALIZED MATERIALS” (Nanoimmunotech SRL, priority 2011, published 2014).

Tested on: Human tumor cells Hmy-2 (HLA-DR class II positive B cell line)
Assay: Recognition, internalization, labeling and drug release
Assay type: cell-based
Conditions: drug transported into the cell by cyclodextrin on the BH1/fluorophore/penetrating peptide gold nanoparticles, 1:1:1:1 molar ratio
Source text: The antibody described above, BH1 functionalized with the PNA-B sequence, has been conjugated to 13 nm gold nanoparticles previously functionalized with the PNA-A sequence by means of the complementary strand hybridization technique. […] On the other hand and due to the possibility of producing a multifunctionalization by using the presented technology, molecules of a cell-penetrating peptide with the DNA-B sequence could further be bound to the nanostructures by hybridization, as occurred with BH1 to the nanoparticles. Furthermore and continuing with the possibility of producing multifunctionalization by using the presented technology, fluorescent labeling molecules functionalized with the DNA-B sequence could be bound to the previous nanostructures by hybridization, as occurred with the BH1 to the nanoparticles. […] To conclude and continuing with multifunctionalization allowed by the presented technology, molecules of cyclodextrin functionalized with the DNA-B sequence could be bound to the previous nanostructures by hybridization as occurred with BH1, fluorophore and penetrating peptide to the nanoparticles, using a 1:1:1:1 molar ratio, respectively.

## CC1(C)CCC2=C(O1)c1ccccc1C(=O)C2=O [β-Lapachone]
  cell death: selectively induced cell death
